# Test results: PubChem BioAssay AID192 (DTP/NCI, 2004)
# Values joined by “and” are separate entries in the source; they are usually repeats but may differ in a detail not shown here. Identical values can stand only once. Inconclusive results and toxic doses are left out.
# Tested on: BDF1 mice, B16 melanoma ip, median survival T/C
# Assay: NCI In Vivo Anticancer Drug Screen. Data for tumor model B16 Melanoma (intraperitoneal) in B6D2F1 (BDF1) mice
# Conditions: endpoint: median survival time, higher = longer survival
# In short: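 Read-out: survival or tumor size, given as treated/control ratio. Controls received vehicle only; animals bore transplantable tumors.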
# [1] = dose: 100.0 mg/kg/injection, schedule: Q01DX009 (ip), vehicle: Klucel (hydroxypropylcellulose) (HPC)
# [2] = dose: 200.0 mg/kg/injection, schedule: Q01DX009 (ip), vehicle: Klucel (hydroxypropylcellulose) (HPC)
# [3] = dose: 400.0 mg/kg/injection, schedule: Q01DX009 (ip), vehicle: Klucel (hydroxypropylcellulose) (HPC)
# [4] = dose: 25.0 mg/kg/injection, schedule: Q01DX009 (ip), vehicle: saline
# [5] = dose: 6.25 mg/kg/injection, schedule: Q01DX009 (ip), vehicle: Klucel (hydroxypropylcellulose) (HPC)
# [6] = dose: 12.5 mg/kg/injection, schedule: Q01DX009 (ip), vehicle: Klucel (hydroxypropylcellulose) (HPC)
# [7] = dose: 50.0 mg/kg/injection, schedule: Q01DX009 (ip), vehicle: Klucel (hydroxypropylcellulose) (HPC)
structure (smiles),measurement,setting,value
CCOc1ccc(N=Nc2ccc(N)cc2N)cc1,T/C,[1],101 % of control
same,T/C,[2],106 % of control
same,T/C,[3],108 % of control
Cc1cc2c(cc1C)C(=O)c1ccccc1C2=O,T/C,[4],91 % of control
same,T/C,"dose: 50.0 mg/kg/injection, schedule: Q01DX009 (ip), vehicle: saline",97 % of control
same,T/C,"dose: 100.0 mg/kg/injection, schedule: Q01DX009 (ip), vehicle: saline",94 % of control
COc1cc(C2N(c3ccccc3)CCN2c2ccccc2)cc(OC)c1OC,T/C,[1],106 % of control
same,T/C,[2],103 % of control
same,T/C,[3],96 % of control
COC1=C2CC(C)CC(OC)C(O)C(C)/C=C(\C)C(OC(N)=O)C(OC)/C=C\C=C(/C)C(=O)NC(=C(/C=N/N(C)C)C1=O)C2=O (stereo not given),T/C,"dose: 12.5 mg/kg/injection, schedule: Q01DX005 (ip), vehicle: other",101 % of control
same,T/C,"dose: 25.0 mg/kg/injection, schedule: Q01DX005 (ip), vehicle: other",101 % of control
same,T/C,"dose: 50.0 mg/kg/injection, schedule: Q01DX005 (ip), vehicle: other",101 % of control
same,T/C,"dose: 100.0 mg/kg/injection, schedule: Q01DX005 (ip), vehicle: other",97 % of control
same,T/C,"dose: 200.0 mg/kg/injection, schedule: Q01DX005 (ip), vehicle: other",96 % of control
CS(=O)(=O)OCCN(CCOS(C)(=O)=O)c1ccc(C=Nc2ccc(-c3csc(Cc4ccccc4)n3)cc2)c(Cl)c1,T/C,[5],107 % of control and 110 % of control
same,T/C,[6],120 % of control
same,T/C,[7],153 % of control
CC(=O)CCc1ccc(O)cc1,T/C,"dose: 100.0 mg/kg/injection, schedule: Q01DX009 (ip), vehicle: saline with Tween-80",90 % of control
same,T/C,"dose: 200.0 mg/kg/injection, schedule: Q01DX009 (ip), vehicle: saline with Tween-80",100 % of control
same,T/C,"dose: 400.0 mg/kg/injection, schedule: Q01DX009 (ip), vehicle: saline with Tween-80",92 % of control
NC(N)=Nc1ccc(C(=O)Oc2ccc([N+](=O)[O-])cc2[N+](=O)[O-])cc1,T/C,"dose: 25.0 mg/kg/injection, schedule: Q01DX009 (ip), vehicle: Klucel (hydroxypropylcellulose) (HPC)",97 % of control
same,T/C,[7],91 % of control
C[N+]1(C)CCCC1,T/C,"dose: 6.25 mg/kg/injection, schedule: Q01DX009 (ip), vehicle: saline",111 % of control
same,T/C,"dose: 6.25 mg/kg/injection, schedule: Q04DX003 (ip), vehicle: saline",95 % of control
same,T/C,"dose: 12.5 mg/kg/injection, schedule: Q01DX009 (ip), vehicle: saline",100 % of control
same,T/C,"dose: 12.5 mg/kg/injection, schedule: Q04DX003 (ip), vehicle: saline",95 % of control
same,T/C,[4],91 % of control
same,T/C,"dose: 25.0 mg/kg/injection, schedule: Q04DX003 (ip), vehicle: saline",95 % of control
NCOC(=O)Cc1ccc(Br)cc1,T/C,[1],97 % of control
same,T/C,[2],97 % of control
same,T/C,[3],89 % of control
O=C(O)CC(NC(=O)c1ccccc1)C(=O)O (stereo not given),T/C,"dose: 6.25 mg/kg/injection, schedule: Q01DX009 (ip), vehicle: saline with Tween-80",100 % of control
same,T/C,"dose: 12.5 mg/kg/injection, schedule: Q01DX009 (ip), vehicle: saline with Tween-80",102 % of control
same,T/C,"dose: 25.0 mg/kg/injection, schedule: Q01DX009 (ip), vehicle: saline with Tween-80",109 % of control
same,T/C,"dose: 50.0 mg/kg/injection, schedule: Q01DX009 (ip), vehicle: saline with Tween-80",93 % of control and 100 % of control
O=C1c2ccccc2C(=O)c2c1ccc(C(=O)O)c2-c1ccc2ccccc2c1,T/C,[1],103 % of control
same,T/C,[2],99 % of control
same,T/C,[3],96 % of control
S=P(Nc1ccccc1)(Nc1ccccc1)c1ccccc1,T/C,[1],104 % of control
same,T/C,[2],96 % of control
same,T/C,[3],87 % of control
Cc1c(NC=O)c(=O)n(-c2ccccc2)n1C,T/C,[1],100 % of control
same,T/C,[2],100 % of control
same,T/C,[3],96 % of control
NC(=O)Oc1ccc(Cc2ccccc2)cc1,T/C,"dose: 100.0 mg/kg/injection, schedule: Q04DX003 (ip), vehicle: Klucel (hydroxypropylcellulose) (HPC)",95 % of control
same,T/C,"dose: 200.0 mg/kg/injection, schedule: Q04DX003 (ip), vehicle: Klucel (hydroxypropylcellulose) (HPC)",91 % of control
same,T/C,"dose: 400.0 mg/kg/injection, schedule: Q04DX003 (ip), vehicle: Klucel (hydroxypropylcellulose) (HPC)",97 % of control
ClC(Cl)=[C](Cl)[Hg][C](Cl)=C(Cl)Cl,T/C,"dose: 3.13 mg/kg/injection, schedule: Q01DX009 (ip), vehicle: Klucel (hydroxypropylcellulose) (HPC)",120 % of control
same,T/C,[5],99 % of control
same,T/C,[6],92 % of control
